B1: MMP-2: matrix metalloproteinase (R&D Systems), activated (protein, UniProt P08253 110-660, looked up)
72 kDa type IV collagenase: YNFFPRKPKWDKNQITYRIIGYTPDLDPETVDDAFARAFQVWSDVTPLRFSRIHDGEADIMINFGRWEHGDGYPFDGKDGLLAHAFAPGTGVGGDSHFDDDELWTLGEGQVVRVKYGNADGEYCKFPFLFNGKEYNSCTDTGRSDGFLWCSTTYNFEKDGKYGFCPHEALFTMGGNAEGQPCKFPFRFQGTSYDSCTTEGRTDGYRWCGTTEDYDRDKKYGFCPETAMSTVGGNSEGAPCVFPFTFLGNKYESCTSAGRSDGKMWCATTANYDDDRKWGFCPDQGYSLFLVAAHEFGHAMGLEHSQDPGALMAPIYTYTKNFRLSQDDIKGIQELYGASPDIDLGTGPTPTLGPVTPEICKQDIVFDGIAQIRGEIFFFKDRFIWRTVTPRDKPMGPLLVATFWPELPEKIDAVYEAPQEEKAVFFAGNEYWIYSASTLERGYPKPLTSLGLPPDVQRVDAAFNWSKNKKTYIFAGDKFWRYNEVKKKMDPGFPKLIADAWNAIPDNLDAVVDLQGGGHSYFFKGAYYLKLENQSLKSVKFGSIKSDWLGC
modifications: activated

Assays:
Assay type in all cases: cell-based, human
[1] = tested on: PBMC from healthy volunteers; experiment: Inhibition of IL-1Ra production by PBMC with Tosyl
Description: Monokines were assessed by ELISA using the DuoSet ELISA development system for human IL-6, TNF-α or IL-1β (R&D Systems Europe, Ltd. UK) following the manufacturer's recommended procedures. Lower limit of detection was […] for IL-6, […] for TNF-α and […] for IL-1β. IL-10 was detected with a kit from Diaclone Research, FR. The lower limit of detection was […]. Human IL-1Ra was detected with a quantitative sandwich ELISA using a monoclonal mouse anti-human IL-1Ra as capture antibody and a biotinylated goat anti-human IL-1Ra as developing antibody (both from R&D Systems). […] Following incubation for 1 hr at room temperature, plates were washed and the amount of bound IL-1Ra was measured by hydrolysis of paranitrophenyl phosphate (Sigma). Optical density was read at dual wavelengths, 405 nm and 570 nm, respectively, in a Multiscan EX microplate reader (Labsystems). […]
Inhibition of IL-1Ra production by PBMC with Tosyl PBMC (2×10^6/ml) from healthy volunteers were pre-incubated with various concentrations of Na-p-Tosyl-L-lysine chloromethyl ketone (Tosyl, Sigma) diluted in RPMI1640/2% HSA for 30 minutes at 37° C. after which the cell suspensions were washed three times in RPMI/2% HSA. […] Viability of cultured PBMCs were also assessed after 24 hrs by Trypan blue exclusion and found to be 100%. […]

PBMC from RCC patients = experiment: TNF-α in PHA stimulated PBMC cultures with chlorambucil; settings: chlorambucil 1 μg/ml, 72 hours, responders vs non-responders to interleukin-2
Description: PHA stimulated proliferation of PBMC with and without chlorambucil Venous blood was drawn at the indicated time points from RCC patients undergoing IL-2 (Proleukin, Chiron, NL) therapy. Mononuclear cells were isolated by Ficoll-Isopaque (Pharmacia, SE) density gradient centrifugation. 5×10^4 PBMC in a final volume of 200 μl were seeded into round-bottomed microtiter plates (Corning Inc. NY, US) in culture medium consisting of RPMI 1640 supplemented with 100 IU/ml Penicillin, 100 μg/ml Streptomycin (Flow laboratories) and 10% heat-inactivated, autologous fresh serum. […]
PHA-stimulated cultures with or without chlorambucil (1 µg/ml) were set up in parallel as described above for mitogen-stimulated cultures. […] The amount of TNF-α in the SNs was evaluated with an ELISA kit from Immunotech S.A., FR, according to the manufacturer's instructions. […]
Comparisons between the proliferative response to PHA in different groups or at different test occasions were done on logarithmated mean values of dpm of triplicates using unpaired t-test. For the determination of the effect of addition of CHL on the proliferative response of PHA-stimulated PBMCs, a modulation index (MI) was calculated according to the following formula: MI=log(dpm PHA+drug/dpm PHA).

normal PBMCs [2] = experiment: Fragmentation of IgG and serum albumin using MMPs, IL-6 inducing activity of supernatants; settings: supernatants tested on normal PBMCs; for release of fragments inducing or modulating IL-6 production from albumin: serum albumin incubated with MMP; for release of fragments inducing or modulating IL-6 production from IgG: IgG incubated with MMP
Description: MMP-1, -2, -13 (R&D Systems) and MMP-3 and -7 (Chemicon, UK) were activated according to instructions of the manufacturer. […] The mixtures were incubated for 5-20 hours at 37° C. Parallel incubations of MMP or the substrates alone, in respective buffer, were set up as controls. The mixtures were buffer exchanged to RPMI as described previously and filtered through a 0.45 μm Millex-HV syringe filter (Millipore, MA, US). Storing of mixtures, when needed, was performed at −70° C. until analysing by gel-electrophoresis and testing for monokine inducing activity in fresh, normal PBMC as described above.

PBMC from healthy donors = experiment: IL-2 induced proliferation of PBMC in the presence of collagen/collagen fragments; settings: collagen 26 ug/ml, PBMCs from healthy donors, autologous serum
Description: 100 μl of RPMI1640 supplemented with 200 IU/ml penicillin, […] streptomycin, 4 mM L-glutamine (all from Sigma Chemical Co. MO, US) and 20% heat-inactivated human serum (autologous or from cancer patients) were added to uncoated, HSA or HSA/IgG coated tissue culture microtiter plates. PBMC, isolated from healthy individuals or patients with metastatic renal cell carcinoma, were diluted in RPMI/2%1-ISA at a concentration of 5×10^5/ml and 100 μl were added to the microtiter wells. Interleukin-2 (IL-2, Proleukin, Chiron, NL), at a final concentration of 120 IU/well, was added to some wells. Cells were cultured for 7 days in a humidified, 5% CO2-atmosphere at 37° C.
Proliferation was assayed by incorporation of 1.6 μCi/well of [3H]-thymidine (Amersham Int., UK) during the last 18 hrs. Mean values of dpm (disintegrations per minute) of triplicates were used for the calculations.
Purified collagen from human skin (Sigma) at a concentration of 100 µg/ml was incubated in 100 mM Tris-HCl, pH 7.6, containing 0.15 M NaCl, 10 mM CaCl2 and 0.05% Brij35 over night at 37° C. The buffer was then exchanged to RPMI1640 by gel filtration through a Sephadex-G25 (PD-10) column (Amersham Biosciences) and filtered through a 0.45 μm Millex-HV syringe filter (Millipore) and frozen at −70° C. until use. […]

normal PBMCs [3] = experiment: Homogenised, washed tumour tissue incubated with MMP-2, IL-6 inducing activity; settings: MMP-2 5 ng/ml; 20 hours at 37° C.
Description: The collection, washing and homogenisation of tumour cryo sections (3×300 μm) were carried out as described above. The pelleted tumour tissue was suspended in 0.5 ml cold RPMI/PEST. MMP-2 (R&D Systems, UK), activated according to instructions from the manufacturer, was added at a final concentration of 5 ng/ml. The tumour tissue suspension was incubated with MMP-2 for 20 h at 37° C. and the supernatant collected after centrifugation. Parallel incubation of tumour tissue with no addition of MMP-2 was set up as a control. The mixtures were buffer exchanged to RPMI by gel filtration through a Sephadex-G25 (PD-10) column (Amersham Biosciences, SE) and filtered through a 0.45 μm Millex-HV syringe filter (Millipore, MA, US). Finally, the mixtures were analysed by gel-electrophoresis and tested for monokine inducing activity in fresh normal PBMC as described above.

Molecule | release of fragments inducing or modulating IL-6 production from albumin (normal PBMCs [2]) | release of fragments inducing or modulating IL-6 production from IgG (normal PBMCs [2]) | other results
Cc1ccc(S(=O)(=O)NC(CCCCN)C(=O)CCl)cc1 [Tosyl, Na-p-Tosyl-L-lysine chloromethyl ketone] |  |  | Viability of cultured PBMCs by Trypan blue exclusion ([1]; after 24 hrs, PBMC pre-incubated with Tosyl): 100%; effect on production of IL1Ra ([1]; non-toxic concentrations, PBMC from healthy individuals (n=9), plates pre-coated with HSA or HSA/IgG): significantly reduced production
O=C(O)CCCc1ccc(N(CCCl)CCCl)cc1 [chlorambucil, Chlorambucil] |  |  | TNF-α production in PHA stimulated cultures with chlorambucil (PBMC from RCC patients): in non-responders TNF-α production is more stimulated than in responders
MMP-1: matrix metalloproteinase (R&D Systems), activated | released active fragments |  | 
MMP-3: matrix metalloproteinase (Chemicon), activated | released active fragments | released active fragments | 
MMP-7: matrix metalloproteinase (Chemicon), activated |  | released active fragments | 
collagen |  |  | effect on IL-2 induced proliferation (PBMC from healthy donors): strongly inhibitory effect; effect on IL-2 induced proliferation (PBMC from healthy donors; listed as collagen/collagen fragments): strong inhibitory effect was demonstrated in two out of three experiments
B1 | released active fragments | released active fragments | release of IL-6 inducing activity from washed tumour tissue (normal PBMCs [3]): modulated the release of IL-6 inducing activity
